What was measured:
[1] = refractive index (Na D-line) (dimensionless); mn = molality of the nth substance listed, in mol/kg; conditions: 303.15 K, 101 kPa, Liquid, Standard Abbe refractometry
[2] = mn = molality of the nth substance listed, in mol/kg; conditions: 303.15 K, 101 kPa, Liquid, Linear variable-path acoustic interferometer
[3] = cn = amount concentration of the nth substance listed, in mol/dm3; conditions: 101 kPa, Liquid; for viscosity: Capillary tube (Ostwald / Ubbelohde) method; for mass density: Pycnometric method
[4] = wn = mass fraction of the nth substance listed; conditions: 101 kPa, Liquid; for viscosity: Capillary tube (Ostwald / Ubbelohde) method; for speed of sound: Linear variable-path acoustic interferometer; for mass density: Pycnometric method
[5] = refractive index (Na D-line) (dimensionless); wn = mass fraction of the nth substance listed; conditions: 303.15 K, 101 kPa, Liquid, Standard Abbe refractometry
[6] = refractive index (Na D-line) (dimensionless); conditions: 303.15 K; 101.33 kPa; Liquid; Standard Abbe refractometry
[7] = 101 kPa, Liquid; for viscosity: Capillary tube (Ostwald / Ubbelohde) method; for mass density: Pycnometric method

CC(C)[C@@H]1CC[C@@H](C)C[C@H]1O [DL-menthol] + CC(C)O
Conditions | refractive index, [1] | speed of sound, [2] [m/s]
m1 = 0.0323 | 1.3741 | 1135.7
m1 = 0.0453 | 1.3744 | 1138.2
m1 = 0.0584 | 1.3747 | 1141.2
m1 = 0.0715 | 1.375 | 1144.4
m1 = 0.0978 | 1.3755 | 1151.1
m1 = 0.111 | 1.3757 | 1154.2

[3]
Conditions | mass density [kg/m3] | viscosity [mPa·s]
303.15 K, c1 = 0.025 | 777.6 | 1.757
303.15 K, c1 = 0.035 | 777.8 | 1.761
303.15 K, c1 = 0.045 | 778 | 1.766
303.15 K, c1 = 0.055 | 778.3 | 1.771
303.15 K, c1 = 0.075 | 778.8 | 1.781
303.15 K, c1 = 0.085 | 779.1 | 1.785
313.15 K, c1 = 0.0247 | 768.8 | 1.34
313.15 K, c1 = 0.0346 | 769 | 1.344
313.15 K, c1 = 0.0445 | 769.2 | 1.349
313.15 K, c1 = 0.0544 | 769.5 | 1.355
313.15 K, c1 = 0.0742 | 770 | 1.364
313.15 K, c1 = 0.084 | 770.3 | 1.368
323.15 K, c1 = 0.0243 | 756.4 | 1.012
323.15 K, c1 = 0.034 | 756.6 | 1.017
323.15 K, c1 = 0.0438 | 756.8 | 1.022
323.15 K, c1 = 0.0535 | 757.1 | 1.026
323.15 K, c1 = 0.073 | 757.7 | 1.034
323.15 K, c1 = 0.0827 | 758 | 1.039

COC(=O)c1ccccc1O [methyl 2-hydroxybenzoate] + CC(C)O
[4]
Conditions | mass density, 303.15 K [kg/m3] | mass density, 313.15 K [kg/m3] | mass density, 323.15 K [kg/m3] | speed of sound, 303.15 K [m/s] | viscosity, 303.15 K [mPa·s] | viscosity, 313.15 K [mPa·s] | viscosity, 323.15 K [mPa·s]
w1 = 0.05 | 790.9 | 782.8 | 770.3 | 1146.8 | 1.798 | 1.379 | 1.048
w1 = 0.1 | 805.3 | 794.3 | 785.1 | 1170.6 | 1.846 | 1.437 | 1.103
w1 = 0.15 | 822.4 | 812 | 799.3 | 1197.7 | 1.961 | 1.56 | 1.227

[5]
Conditions | refractive index
w1 = 0.05 | 1.3791
w1 = 0.1 | 1.3852
w1 = 0.15 | 1.3912

CC(C)O [propan-2-ol]
Conditions | refractive index
[6] | 1.3736

[7]
Conditions | mass density [kg/m3] | viscosity [mPa·s]
303.15 K | 777.1 | 1.747
313.15 K | 768.4 | 1.33
323.15 K | 756 | 1.003

Conditions | speed of sound [m/s]
[7], 303.15 K, Linear variable-path acoustic interferometer | 1130.6

CC(C)O [propan-2-ol] + COC(=O)c1ccccc1O
[4], w2 = 0
Conditions | mass density [kg/m3] | speed of sound [m/s] | viscosity [mPa·s]
303.15 K | 777.1 | 1130.6 | 1.747
313.15 K | 768.4 | – | 1.33
323.15 K | 756 | – | 1.003

Conditions | refractive index
[5], w2 = 0 | 1.3736

— the NIST ThermoML archive (doi:10.1016/j.tca.2009.12.001)
